The results in this text go back to article PMC5681660, “Reduced hepatitis B and D viral entry using clinically applied drugs as novel inhibitors of the bile acid transporter NTCP” (Scientific Reports, 2017).

Assay [1] deals with T1, human NTCP (Homo sapiens, UniProt Q14973).
T1 sequence (Q14973 1-349): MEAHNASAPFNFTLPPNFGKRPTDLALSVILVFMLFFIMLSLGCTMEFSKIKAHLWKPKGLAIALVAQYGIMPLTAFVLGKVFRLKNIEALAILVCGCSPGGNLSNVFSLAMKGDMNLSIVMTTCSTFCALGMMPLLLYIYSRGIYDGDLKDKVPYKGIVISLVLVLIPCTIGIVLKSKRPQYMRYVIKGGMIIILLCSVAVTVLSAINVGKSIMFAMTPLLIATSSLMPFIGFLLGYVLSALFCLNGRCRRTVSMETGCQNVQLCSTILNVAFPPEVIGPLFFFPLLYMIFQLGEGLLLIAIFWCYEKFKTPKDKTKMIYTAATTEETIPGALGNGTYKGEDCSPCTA
The assay is described as follows: Screening fluorescent competitive Myrcludex B-FITC binding assay (96-well, 10 µM drug). The conditions noted are these: 10 µM drug.

The target of assay [2] is T1, human NTCP. The assay is described as follows: Screening taurocholate uptake assay (96-well, [14C]taurocholate, 10 µM drug). The conditions noted are these: for B-score functional assay: 10 µM drug.
[3] abbreviates: Prestwick library screen, Myrcludex B-FITC binding.
[4] abbreviates: Prestwick library screen, taurocholate uptake.
[5] abbreviates: ranking score beside the functional and binding assay B-scores of the screen.
Setting [6] is: screen, Myrcludex B-FITC binding.
Where [7] appears, read: combined ranking from functional and binding screening assays.
The mark [8] stands for this setting: Prestwick library screen, B-score of Myrcludex B-FITC binding.
[9] abbreviates: Prestwick library screen, B-score of taurocholate uptake.
Setting [10] is: combined ranking from functional and binding assay B-scores.

Counter-ions that a name gives are not always drawn. Non-standard residues stand in square brackets, D forms with d. Residues, ends and D or L forms follow the SMILES beside them. *: point of attachment. Sta = CC(C)C[C@H](N)[C@@H](O)CC(=O)O; Isovaleryl = CC(C)CC(=O)*

Compound `CC(C)CC(=O)N[C@H](C(=O)N[C@H](C(=O)N[C@@H](CC(C)C)[C@@H](O)CC(=O)N[C@@H](C)C(=O)N[C@@H](CC(C)C)[C@@H](O)CC(=O)O)C(C)C)C(C)C` [Pepstatin A] (Isovaleryl-VV[Sta]A[Sta]-OH) had a B-score binding assay at human NTCP [1] (setting [3]) of -0.237. In addition, the B-score functional assay at human NTCP [2] (setting [4]) was found to be 2.688. Moreover, at human NTCP [2] (setting [5]), the Ranking score came out at 763.991.
`O=C(NCC1CCCCN1)c1cc(OCC(F)(F)F)ccc1OCC(F)(F)F` (stereo not drawn) [Flecainide acetate]: the B-score binding assay at human NTCP [1] (setting [6]) was found to be 0.272. For the same compound, at human NTCP [2] (setting [7]), the Ranking score came out at 448.174. This compound showed a B-score functional assay at human NTCP [2] (screen, taurocholate uptake) of -1.076.
In turn, `CC(=O)Oc1ccccc1C(=O)Oc1ccccc1C(=O)O` [Acetylsalicylsalicylic acid] returned a B-score binding assay at human NTCP [1] (setting [3]) of -0.007. The same compound came in with a B-score functional assay on human NTCP [2] (setting [4]) of 0.347. The compound also gave a Ranking score at human NTCP [2] (setting [5]) of 734.743.
On human NTCP [1] (setting [3]), `COc1ccc(C(=O)c2ccccc2)c(O)c1` [Oxybenzone] yielded a B-score binding assay of -0.416. Moreover, the B-score functional assay on human NTCP [2] (setting [4]) stood at 2.742. Moreover, the Ranking score at human NTCP [2] (setting [5]) worked out at 706.929.
For the compound `CC(Cc1cccc(C(F)(F)F)c1)NCCOC(=O)c1ccccc1` (stereo not drawn) [Benfluorex], the B-score binding assay at human NTCP [1] (setting [8]) worked out at 1.025. On human NTCP [2] (setting [9]), this compound registered a B-score functional assay of 0.848. Besides, the Ranking score on human NTCP [2] (setting [10]) is 1033.89.
At human NTCP [1] (setting [6]), `CNNCc1ccc(C(=O)NC(C)C)cc1` [Procarbazine hydrochloride] had a B-score binding assay of -0.424. Besides, at human NTCP [2] (setting [7]), the Ranking score was found to be 345.534. The compound further displayed a B-score functional assay on human NTCP [2] (screen, taurocholate uptake) of -0.792.
In turn, `CN1C[C@H](C(=O)N[C@]2(C)O[C@@]3(O)[C@@H]4CCCN4C(=O)[C@H](Cc4ccccc4)N3C2=O)C[C@@H]2c3cccc4[nH]cc(c34)C[C@H]21.CN1C[C@H](C(=O)N[C@]2(C)O[C@@]3(O)[C@@H]4CCCN4C(=O)[C@H](Cc4ccccc4)N3C2=O)C[C@@H]2c3cccc4[nH]cc(c34)C[C@H]21.O=C(O)C(O)C(O)C(=O)O` [Dihydroergotamine tartrate] returned a B-score binding assay at human NTCP [1] (setting [6]) of -1.57. On human NTCP [2] (setting [7]), the Ranking score worked out at 379.284. For the same compound, the B-score functional assay at human NTCP [2] (screen, taurocholate uptake) was 0.679.
In the case of `CC(C)NC[C@H](O)COc1ccc(CC(N)=O)cc1` [(S)-(-)-Atenolol], the B-score binding assay at human NTCP [1] (setting [6]) is on record as -0.394. The Ranking score on human NTCP [2] (setting [7]) is 412.97. This compound also gave a B-score functional assay on human NTCP [2] (screen, taurocholate uptake) of -0.386.
The compound `CC[C@H]1OC(=O)[C@H](C)[C@@H](O[C@H]2C[C@@](C)(OC)[C@@H](O)[C@H](C)O2)[C@H](C)[C@@H](O[C@@H]2O[C@H](C)C[C@H](N(C)C)[C@H]2O)[C@](C)(O)C[C@@H](C)[C@@H]2N[C@@H](COCCOC)O[C@H]([C@H]2C)[C@]1(C)O` [Dirithromycin] yielded a B-score binding assay at human NTCP [1] (setting [8]) of 0.123. The B-score functional assay at human NTCP [2] (setting [9]) was 1.532. For the same compound, the Ranking score on human NTCP [2] (setting [10]) was 934.441.
Consider `CC(C)(C(=O)c1cccnc1)c1cccnc1` [Metyrapone], for which, on human NTCP [1] (setting [3]), the B-score binding assay is -0.063. Moreover, the B-score functional assay on human NTCP [2] (setting [4]) is 0.78. Further, on human NTCP [2] (setting [5]), the Ranking score was found to be 759.235.
In the case of `CC(C)NCC(O)c1ccc2ccccc2c1.Cl` (stereo not drawn) [Pronethalol hydrochloride], the B-score binding assay on human NTCP [1] (setting [6]) is 0.008. For the same compound, the Ranking score at human NTCP [2] (setting [7]) is 409.31. In addition, on human NTCP [2] (screen, taurocholate uptake), the B-score functional assay is on record as -0.999.
The compound `C[C@](N)(Cc1ccc(O)c(O)c1)C(=O)O` [Methyldopa (L,-)] displayed a B-score binding assay at human NTCP [1] (setting [3]) of -0.046. Moreover, the B-score functional assay on human NTCP [2] (setting [4]) came to 1.009. In addition, the Ranking score at human NTCP [2] (setting [5]) is listed as 793.128.
On to `COc1ccc(NS(=O)(=O)c2ccc(N)cc2)nn1` [Sulfamethoxypyridazine], for which the B-score binding assay at human NTCP [1] (setting [8]) was determined as 1.584. In addition, the B-score functional assay on human NTCP [2] (setting [9]) was determined as 0.331. The Ranking score at human NTCP [2] (setting [10]) is recorded as 989.975.
`O=C1c2ccccc2S(=O)(=O)N1CCCCN1CCN(c2ncccn2)CC1` [Ipsapirone]: the B-score binding assay at human NTCP [1] (setting [8]) is recorded as 0.854. This compound came in with a B-score functional assay at human NTCP [2] (setting [9]) of 1.921. Also, the Ranking score at human NTCP [2] (setting [10]) stood at 1093.42.
`CC(NCCc1ccc(O)cc1)C(O)c1ccc(O)cc1` (stereo not drawn) [Ritodrine hydrochloride]: the B-score binding assay on human NTCP [1] (setting [8]) is given as 1.66. Besides, the B-score functional assay at human NTCP [2] (setting [9]) worked out at 1. For the same compound, at human NTCP [2] (setting [10]), the Ranking score was 1111.92.
As for Eburnamonine (-), on human NTCP [1] (setting [6]), the B-score binding assay was -0.173. For the same compound, the Ranking score on human NTCP [2] (setting [7]) is 349.983. This compound displayed a B-score functional assay on human NTCP [2] (screen, taurocholate uptake) of -1.058.
As to `CCN(CC)CCNC(=O)COc1ccc(OC)cc1.Cl` [Mefexamide hydrochloride], the B-score binding assay at human NTCP [1] (setting [8]) is on record as 0.456. This compound also gave a B-score functional assay at human NTCP [2] (setting [9]) of 1.015. The Ranking score at human NTCP [2] (setting [10]) stood at 979.142.
As to `Nc1ccc(S(=O)(=O)Nc2ccnn2-c2ccccc2)cc1` [Sulfaphenazole], the B-score binding assay on human NTCP [1] (setting [8]) stood at 0.287. In addition, on human NTCP [2] (setting [9]), the B-score functional assay was determined as 0.483. For the same compound, the Ranking score at human NTCP [2] (setting [10]) is recorded as 867.854.
As to `O=C(NCCN1CCOCC1)c1ccc(Cl)cc1` [Moclobemide], the B-score binding assay at human NTCP [1] (setting [3]) was -0.149. On human NTCP [2] (setting [4]), this compound had a B-score functional assay of 1.399. The compound also showed a Ranking score on human NTCP [2] (setting [5]) of 766.363.
The like results for `CC(c1cc2ccccc2s1)N(O)C(N)=O` (stereo not drawn) [Zileuton] were, in that order, 1.294, -0.271 and 706.817.
As to `OC(c1cc(C(F)(F)F)nc2c(C(F)(F)F)cccc12)C1CCCCN1` (stereo not drawn) [Mefloquine hydrochloride], the B-score binding assay at human NTCP [1] (setting [3]) was -0.336. The same compound displayed a B-score functional assay at human NTCP [2] (setting [4]) of 1.734. The Ranking score at human NTCP [2] (setting [5]) is listed as 704.329.
At human NTCP [1] (setting [6]), `O=C(O)Cc1sc(-c2ccccc2)nc1-c1ccc(Cl)cc1` [Fentiazac] gave a B-score binding assay of 0.475. Also, on human NTCP [2] (setting [7]), the Ranking score was 402.269. Further, the B-score functional assay on human NTCP [2] (screen, taurocholate uptake) is -1.501.
`CCN(CC)CCOC(=O)C1(c2ccc([N+](=O)[O-])cc2)CCCC1.Cl` [Nitrocaramiphen hydrochloride] came in with a B-score binding assay at human NTCP [1] (setting [8]) of 0.18. The B-score functional assay on human NTCP [2] (setting [9]) is 0.881. Also, the Ranking score at human NTCP [2] (setting [10]) is reported as 904.838.
`Cc1cc(NC(=O)C2=C(O)c3ccccc3S(=O)(=O)N2C)no1` [Isoxicam] came in with a B-score binding assay at human NTCP [1] (setting [8]) of 0.145. Also, the B-score functional assay on human NTCP [2] (setting [9]) is listed as 1.391. Besides, at human NTCP [2] (setting [10]), the Ranking score is 933.01.
On human NTCP [1] (setting [8]), `CN1CCOC(c2ccccc2)c2ccccc2C1` (stereo not drawn) [Nefopam hydrochloride] returned a B-score binding assay of 0.293. The compound further yielded a B-score functional assay on human NTCP [2] (setting [9]) of 0.705. Further, on human NTCP [2] (setting [10]), the Ranking score is listed as 906.685.
Consider `CC(C)(C)NC[C@H](O)c1ccc(O)c(CO)c1` [Levalbuterol hydrochloride], for which the B-score binding assay on human NTCP [1] (setting [8]) is recorded as 1.242. At human NTCP [2] (setting [9]), this compound returned a B-score functional assay of 0.334. Moreover, the Ranking score at human NTCP [2] (setting [10]) is given as 962.353.
On to `COc1c(N2C[C@@H]3CCCN[C@@H]3C2)c(F)cc2c(=O)c(C(=O)O)cn(C3CC3)c12` [Moxifloxacin], for which the B-score binding assay on human NTCP [1] (setting [6]) is on record as -1.402. Moreover, the Ranking score at human NTCP [2] (setting [7]) was found to be 388.165. In addition, on human NTCP [2] (screen, taurocholate uptake), the B-score functional assay is recorded as 0.4.
The like results for `Nc1ccn([C@@H]2CS[C@H](CO)O2)c(=O)n1` [Lamivudine] were, in that order, -1.334, 411.191 and 0.533.
Consider `CC1=C(C(=O)O)N2C(=O)[C@@H](NC(=O)[C@H](N)c3ccc(O)cc3)[C@H]2SC1` [Cefadroxil], for which, at human NTCP [1] (setting [6]), the B-score binding assay was -0.675. The Ranking score on human NTCP [2] (setting [7]) is given as 439.805. At human NTCP [2] (screen, taurocholate uptake), this compound showed a B-score functional assay of -0.032.
